From patent publication US12433900B2, “Intravitreal corticosteroid extended release implant and methods of use” (Eyedea Bio, LLC, priority 2021, dated 2025)

Experiment: Calculated Octanol Solubility Index (OSI) and Topological Polar Surface Area (TPSA) of the API
Conditions: calculated using the log P and maximal aqueous solubility
Source text: The interactions between API and complexation agent and/or dispersal medium can be predicted based on the Octanol Solubility Index (OSI) and Topological Polar Surface Area (TPSA) of the API. TPSA is a calculated measure of a molecule's polarity based on the number of polar atoms contained in the molecule. OSI is a measure of compound lipophilicity and can be calculated using the log P and maximal aqueous solubility of the compound by the formula:

SMILES | OSI (Octanol Solubility Index)
CC1(C)O[C@@H]2C[C@H]3[C@@H]4C[C@H](F)C5=CC(=O)C=C[C@]5(C)[C@@]4(F)[C@@H](O)C[C@]3(C)[C@]2(C(=O)CO)O1 [fluocinolone acetonide, 6α,9α-difluoro-11β,16α,17α,21-tetrahydroxypregna-1,4-diene-3,20-dione cyclic 16α,17α-acetal with acetone] | 3.48
C[C@@H]1C[C@H]2[C@@H]3CCC4=CC(=O)C=C[C@]4(C)[C@@]3(F)[C@@H](O)C[C@]2(C)[C@@]1(O)C(=O)COP(=O)(O)O [dexamethasone phosphate] | 3.71
C[C@@H]1C[C@H]2[C@@H]3CCC4=CC(=O)C=C[C@]4(C)[C@@]3(F)[C@@H](O)C[C@]2(C)[C@@]1(O)C(=O)CO [dexamethasone free base, 9α-fluoro-11β,17α,21-trihydroxy-16α-methylpregna-1,4-diene-3,20-dione] | 3.85
